# Reference: the supplement of paper PMC11208160
# Assay: recombinant UMI read abundance after kanamycin selection (control-corrected) (log10(CPM+1)); higher = more efficient recombination; extreme values may be limits of the assay; sequences stand for … in AGTGCAGAGAAAATCGGCCAGTTTTCTCTGCCTGCAGTCCGCATGCCGTGGGACCCCTTGGGTTCTAACCTGTTGCCTAGATTTATGCAGCGGACTGCCTTTCTCCCAAAGTGATAAACCGG…AGGTTGGTTTCACT; site = the 11-nt donor
# How it was run: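 Each donor and donor-binding-loop pair was tracked by a 12-nt UMI on a plasmid carrying a promoterless kanamycin gene. With a second plasmid supplying a fixed target and T7-inducible IS621 bridge recombinase, the pool was plated in Escherichia coli on IPTG (0.07 mM) plus kanamycin or unselected. Sequencing of recombinant UMIs across the donor–target junction gave counts expressed as log10(CPM+1) after replicate averaging and control-derived scaling.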
row,Sequence,recombinant UMI read abundance (log10)
1,CGGGAAGCATGGACCGGTTTTCCCGGTAATCCGTATTTGAT (site CGGGAAACTAT),1.7
2,CGGGAAGCATGGACCGGTTTTCCCGGTAATCCGTATTTGAT (site CGGGAACCTAT),0
3,CGGGAAGCATGGACCGGTTTTCCCGGTAATCCGTATTTGAT (site CGGGAAGCTAT),1.9
4,CGGGAAGCATGGACCGGTTTTCCCGGTAATCCGTATTTGAT (site CGGGAATCTAT),1.85
5,CGGGAATCATGGACCGGTTTTCCCGGTAATCCGTATTTGCC (site CGGGAATCTGG),2.51
6,CGGGAATCATGGACCGGTTTTCCCGGTAATCCGTATTTGCC (site CGGGACTCTGG),1.28
7,CGGGAATCATGGACCGGTTTTCCCGGTAATCCGTATTTGCC (site CGGGAGTCTGG),2.11
8,CGGGAATCATGGACCGGTTTTCCCGGTAATCCGTATTTGCC (site CGGGATTCTGG),0.646
9,CGGGACCCATGGACCGGTTTTCCCGGTAATCCGTATTTGAT (site CGGGAACCTAT),0.00853
10,CGGGACCCATGGACCGGTTTTCCCGGTAATCCGTATTTGAT (site CGGGACCCTAT),0.879
11,CGGGACCCATGGACCGGTTTTCCCGGTAATCCGTATTTGAT (site CGGGAGCCTAT),0.00629
12,CGGGACCCATGGACCGGTTTTCCCGGTAATCCGTATTTGAT (site CGGGATCCTAT),0
13,CGGGACGCATGGACCGGTTTTCCCGGTAATCCGTATTTGTA (site CGGGACGCTTA),2.82
14,CGGGACTCATGGACCGGTTTTCCCGGTAATCCGTATTTGCC (site CGGGAATCTGG),2.14
15,CGGGACTCATGGACCGGTTTTCCCGGTAATCCGTATTTGCC (site CGGGACTCTGG),3.01
16,CGGGACTCATGGACCGGTTTTCCCGGTAATCCGTATTTGCC (site CGGGAGTCTGG),0
17,CGGGACTCATGGACCGGTTTTCCCGGTAATCCGTATTTGCC (site CGGGATTCTGG),1.77
18,CGGGAGTCATGGACCGGTTTTCCCGGTAATCCGTATTTGCA (site CGGGAGTCTAG),1.74
19,CGGGAGTCATGGACCGGTTTTCCCGGTAATCCGTATTTGCA (site CGGGAGTCTCG),2.73

row,Sequence,recombinant UMI read abundance (log10)
1,CGGGAGTCATGGACCGGTTTTCCCGGTAATCCGTATTTGCA (site CGGGAGTCTGG),1.15
2,CGGGAGTCATGGACCGGTTTTCCCGGTAATCCGTATTTGCA (site CGGGAGTCTTG),2.89
3,CGGGCGTCATGGACCGGTTTTCCCGGTAATCCGTATTTGCC (site CGGGAGTCTGG),0
4,CGGGCGTCATGGACCGGTTTTCCCGGTAATCCGTATTTGCC (site CGGGCGTCTGG),2.89
5,CGGGCGTCATGGACCGGTTTTCCCGGTAATCCGTATTTGCC (site CGGGGGTCTGG),0
6,CGGGCGTCATGGACCGGTTTTCCCGGTAATCCGTATTTGCC (site CGGGTGTCTGG),0
7,CGGGGAACATGGACCGGTTTTCCCGGTAATCCGTATTTGTT (site CGAGGAACTAA),2.44
8,CGGGGAACATGGACCGGTTTTCCCGGTAATCCGTATTTGTT (site CGCGGAACTAA),0.00411
9,CGGGGAACATGGACCGGTTTTCCCGGTAATCCGTATTTGTT (site CGGGGAACTAA),2.6
10,CGGGGAACATGGACCGGTTTTCCCGGTAATCCGTATTTGTT (site CGTGGAACTAA),0.548
11,CGGGTACCATGGACCGGTTTTCCCGGTAATCCGTATTTGTA (site CGGGTACCTTA),0.00704
12,CGGGTCACATGGACCGGTTTTCCCGGTAATCCGTATTTGGC (site CGGGTCACTGC),3.54
13,CGGGTGTCATGGACCGGTTTTCCCGGTAATCCGTATTTGCC (site CGGGAGTCTGG),0.659
14,CGGGTGTCATGGACCGGTTTTCCCGGTAATCCGTATTTGCC (site CGGGCGTCTGG),1.74
15,CGGGTGTCATGGACCGGTTTTCCCGGTAATCCGTATTTGCC (site CGGGGGTCTGG),0
16,CGGGTGTCATGGACCGGTTTTCCCGGTAATCCGTATTTGCC (site CGGGTGTCTGG),2.69
17,CGGGTTCCATGGACCGGTTTTCCCGGTAATCCGTATTTGTT (site CGGAATCCTAA),0.00595
18,CGGGTTCCATGGACCGGTTTTCCCGGTAATCCGTATTTGTT (site CGGGTTCCTAA),0.776
19,CGGTAACCATGGACCGGTTTTCCCGGTAATCCGTATTTGAT (site CGGAAACCTAT),0

row,Sequence,recombinant UMI read abundance (log10)
1,CGGTAACCATGGACCGGTTTTCCCGGTAATCCGTATTTGAT (site CGGCAACCTAT),0.00415
2,CGGTAACCATGGACCGGTTTTCCCGGTAATCCGTATTTGAT (site CGGGAACCTAT),0
3,CGGTAACCATGGACCGGTTTTCCCGGTAATCCGTATTTGAT (site CGGTAACCTAT),0
4,CGGTAGACATGGACCGGTTTTCCCGGTAATCCGTATTTGCA (site AGGAAGACTTG),0
5,CGGTAGACATGGACCGGTTTTCCCGGTAATCCGTATTTGCA (site CGGTAGACTTG),2.84
6,CGGTAGCCATGGACCGGTTTTCCCGGTAATCCGTATTTGCT (site CGGTAGCCTAG),0.793
7,CGGTATCCATGGACCGGTTTTCCCGGTAATCCGTATTTGTT (site CGGAATCCTAA),0
8,CGGTATCCATGGACCGGTTTTCCCGGTAATCCGTATTTGTT (site CGGCATCCTAA),0.493
9,CGGTATCCATGGACCGGTTTTCCCGGTAATCCGTATTTGTT (site CGGGATCCTAA),0.0113
10,CGGTATCCATGGACCGGTTTTCCCGGTAATCCGTATTTGTT (site CGGTATCCTAA),0.562
11,CGGTCGTCATGGACCGGTTTTCCCGGTAATCCGTATTTGCA (site CGGTCGTCTTG),1.71
12,CGGTGGCCATGGACCGGTTTTCCCGGTAATCCGTATTTGGG (site CGGTGGCCTCC),0.0062
13,CGGTTATCATGGACCGGTTTTCCCGGTAATCCGTATTTGCT (site CGATCATCTAG),0
14,CGGTTATCATGGACCGGTTTTCCCGGTAATCCGTATTTGCT (site CGGTTATCTAG),2.65
15,CGGTTTACATGGACCGGTTTTCCCGGTAATCCGTATTTGCT (site CAGTTTACTAG),0
16,CGGTTTACATGGACCGGTTTTCCCGGTAATCCGTATTTGCT (site CCGTTTACTAG),0.391
17,CGGTTTACATGGACCGGTTTTCCCGGTAATCCGTATTTGCT (site CGGTTTACTAG),1.33
18,CGGTTTACATGGACCGGTTTTCCCGGTAATCCGTATTTGCT (site CTGTTTACTAG),1.21
19,CGTAAAGCATGGACCGGTTTTCCCGGTAATCCGTATTTGAT (site CATAAAGCTAT),0.355
